# Measured values from patent US8063225B2, “Tricyclic compound derivatives useful in the treatment of neoplastic diseases, inflammatory disorders and immunomodulatory disorders” (Chembridge Corporation, priority 2006, dated 2011).
# Assays:
# Alk = biological target: T1, Alk (Homo sapiens, UniProt Q9UM73); test: Tyrosine kinase assay (Kinase-Glo or AlphaScreen), Alk; details: biochemical tyrosine kinase assay
# T1 construct: 6×His- or GST-tagged kinase domain fragments of the corresponding RTKs expressed in baculovirus system; host or cells: baculovirus system
# Procedure, shortened: (§1)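 Baculovirus-expressed His- or GST-tagged kinase domains with poly(Glu-Tyr) substrate, 10 μM ATP, pH 7.5 Tris with MgCl2/MnCl2. Kinase-Glo: 60 min at 37 °C, residual ATP by luminescence; AlphaScreen: 30 min at RT, then anti-phosphotyrosine beads 60 min. Eight concentrations, 1 nM to 20 μM; IC50 by nonlinear regression.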
# [1] = tested on: HEK293 (human normal embryonic kidney); test: Cell proliferation inhibition, Cell Titer-Glo, HEK293; format: cell-based; details: cell proliferation assay, HEK293 cells, read-out: HEK 293 IC50
# Procedure, shortened: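 Cells seeded at 2500-5000 per well with serially diluted compound for typically 3 days. Viable cells measured by ATP luminescence (Cell Titer-Glo); IC50 from proliferation-inhibition curves.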
# K562 = test: Cell proliferation inhibition, Cell Titer-Glo, K562; format: cell-based; details: Homo sapiens; cell proliferation assay, K562 cells
# Procedure, shortened: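 K562 cells were seeded at 2500-5000 cells per well in white, clear-bottomed 384-well culture plates and treated with dilutions of test compounds for typically 3 days. Viable cells were quantified with the Cell Titer-Glo Luminescent Cell Viability Assay (Promega), which measures total ATP, read on a luminescence plate reader to derive IC50 values for proliferation inhibition.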
# Jak2 = biological target: T2, Jak2 (Homo sapiens, UniProt O60674); test: Tyrosine kinase assay (Kinase-Glo or AlphaScreen), Jak2; details: biochemical tyrosine kinase assay
# T2 construct: 6×His- or GST-tagged kinase domain fragments of the corresponding RTKs expressed in baculovirus system; host or cells: baculovirus system
# Procedure, shortened: as §1
# Ba/F3 = test: Cell proliferation inhibition, Cell Titer-Glo, Ba/F3; format: cell-based; details: Mus musculus, BaF3; cell proliferation assay, Ba/F3 cells
# Procedure, shortened: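 Ba/F3 cells were seeded at 2500-5000 cells per well in white, clear-bottomed 384-well culture plates and exposed to serial dilutions of test compounds for 3 days. Cell Titer-Glo Luminescent Cell Viability Assay (Promega) reagent, which measures total ATP as an indicator of metabolic activity, was added. Luminescence was read on a multiwell plate reader to derive IC50 values for inhibition of proliferation.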
# Karpas-299 = test: Cell proliferation inhibition, Cell Titer-Glo, Karpas-299; format: cell-based; details: Homo sapiens; cell proliferation assay, Karpas-299 cells
# Procedure, shortened: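 Karpas 299 cells were seeded into white, clear-bottomed 384-well culture plates at 2500-5000 cells per well and exposed to serial dilutions of test compounds for about 3 days. Viable cell numbers were then measured with the Cell Titer-Glo Luminescent Cell Viability Assay (Promega), which detects total ATP, and IC50 values for proliferation inhibition were derived.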
# T1 sequence (Q9UM73 1116-1392 limits assumed, species assumed): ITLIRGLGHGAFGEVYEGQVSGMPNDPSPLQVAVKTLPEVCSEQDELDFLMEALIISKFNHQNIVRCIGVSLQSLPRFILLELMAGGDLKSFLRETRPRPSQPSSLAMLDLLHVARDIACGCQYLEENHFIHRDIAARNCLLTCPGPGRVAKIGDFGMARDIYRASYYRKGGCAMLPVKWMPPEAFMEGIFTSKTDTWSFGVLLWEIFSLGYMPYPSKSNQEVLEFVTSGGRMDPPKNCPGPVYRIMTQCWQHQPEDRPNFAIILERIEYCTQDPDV
# T2 sequence (O60674 849-1124 limits assumed, species assumed): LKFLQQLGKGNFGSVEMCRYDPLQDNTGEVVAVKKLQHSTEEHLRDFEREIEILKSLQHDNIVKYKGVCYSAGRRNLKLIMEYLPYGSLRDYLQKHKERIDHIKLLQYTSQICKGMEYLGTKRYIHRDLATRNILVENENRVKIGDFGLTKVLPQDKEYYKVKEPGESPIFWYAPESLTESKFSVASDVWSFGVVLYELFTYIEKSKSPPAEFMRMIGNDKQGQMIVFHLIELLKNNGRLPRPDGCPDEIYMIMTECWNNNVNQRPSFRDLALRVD
smiles,measurement,setting,value
CN1CCC(N2C(=O)c3cc4nc(-c5c(NC[C@@H](O)c6cccc(Cl)c6)cc[nH]c5=O)[nH]c4cc3C2=O)CC1 [compound 1],IC50,Alk,0.5 to 5 µM
same,IC50,[1],5 to 15 µM
same,IC50,K562,5 to 15 µM
same,IC50,Jak2,0.5 to 5 µM
Cc1ccc(OCC(O)CNc2cc[nH]c(=O)c2-c2nc3cc4c(cc3[nH]2)C(=O)N(C2CCN(C)CC2)C4=O)c(C)c1 (centres unmarked) [compound 15],IC50,Alk,5 to 15 µM
same,IC50,[1],5 to 15 µM
same,IC50,K562,0.5 to 5 µM
same,IC50,Jak2,0.5 to 5 µM
C[C@H](O)CN1C(=O)c2cc3nc(-c4c(NC[C@@H](O)c5cccc(Cl)c5)cc[nH]c4=O)[nH]c3cc2C1=O [compound 31],IC50,Alk,> 15 µM
same,IC50,[1],5 to 15 µM
same,IC50,K562,5 to 15 µM
same,IC50,Jak2,5 to 15 µM
same,IC50,Ba/F3,> 15 µM
same,IC50,Karpas-299,> 15 µM
Cc1ccc(OC[C@H](O)CNc2cc[nH]c(=O)c2-c2nc3cc4c(cc3[nH]2)C(=O)N(C2CCN(C)CC2)C4=O)c(C)c1 [compound 59],IC50,Alk,0.5 to 5 µM
same,IC50,[1],5 to 15 µM
same,IC50,K562,5 to 15 µM
same,IC50,Jak2,0.5 to 5 µM
same,IC50,Ba/F3,0.5 to 5 µM
same,IC50,Karpas-299,0.5 to 5 µM
COc1ccc(OC[C@H](O)CNc2cc[nH]c(=O)c2-c2nc3cc4c(cc3[nH]2)C(=O)N(C2CCN(C)CC2)C4=O)c(OC)c1OC [compound 93],IC50,Alk,> 15 µM
same,IC50,[1],5 to 15 µM
same,IC50,K562,> 15 µM
same,IC50,Jak2,> 15 µM
same,IC50,Ba/F3,> 15 µM
same,IC50,Karpas-299,5 to 15 µM
Cc1c(Cl)cccc1OC[C@H](O)CNc1cc[nH]c(=O)c1-c1nc2cc3c(cc2[nH]1)C(=O)N(C1CCN(C)CC1)C3=O [compound 94],IC50,Alk,0.5 to 5 µM
same,IC50,[1],> 15 µM
same,IC50,K562,> 15 µM
same,IC50,Jak2,0.5 to 5 µM
same,IC50,Ba/F3,> 15 µM
same,IC50,Karpas-299,> 15 µM
CN1CCC(N2C(=O)c3cc4nc(-c5c(NC[C@@H](O)COc6c(F)ccc(Cl)c6F)cc[nH]c5=O)[nH]c4cc3C2=O)CC1 [compound 95],IC50,Alk,0.5 to 5 µM
same,IC50,[1],5 to 15 µM
same,IC50,K562,5 to 15 µM
same,IC50,Jak2,0.5 to 5 µM
same,IC50,Ba/F3,> 15 µM
same,IC50,Karpas-299,5 to 15 µM
CN1CCC(N2C(=O)c3cc4nc(-c5c(NC[C@@H](O)COc6cccc(C(F)(F)F)c6)cc[nH]c5=O)[nH]c4cc3C2=O)CC1 [compound 97],IC50,Alk,5 to 15 µM
same,IC50,[1],> 15 µM
same,IC50,K562,> 15 µM
same,IC50,Jak2,0.5 to 5 µM
same,IC50,Ba/F3,> 15 µM
same,IC50,Karpas-299,> 15 µM
Cc1cc(C)c(OC[C@H](O)CNc2cc[nH]c(=O)c2-c2nc3cc4c(cc3[nH]2)C(=O)N(C2CCN(C)CC2)C4=O)cc1Cl [compound 108],IC50,Alk,0.5 to 5 µM
same,IC50,[1],5 to 15 µM
same,IC50,Jak2,0.5 to 5 µM
same,IC50,Ba/F3,> 15 µM
same,IC50,Karpas-299,5 to 15 µM
Cc1ccc(OC[C@H](O)CNc2cc[nH]c(=O)c2-c2nc3cc4c(cc3[nH]2)CN(C2CCN(C)CC2)C4=O)c(C)c1 [compound 130],IC50,Alk,0.5 to 5 µM
same,IC50,[1],> 15 µM
same,IC50,K562,> 15 µM
same,IC50,Jak2,< 0.5 µM
Cc1ccc2c(ccn2C[C@H](O)CNc2cc[nH]c(=O)c2-c2nc3cc4c(cc3[nH]2)C(=O)N(C2CCN(C)CC2)C4=O)c1 [compound 131],IC50,Alk,5 to 15 µM
same,IC50,[1],0.5 to 5 µM
same,IC50,K562,5 to 15 µM
same,IC50,Jak2,0.5 to 5 µM
same,IC50,Ba/F3,> 15 µM
same,IC50,Karpas-299,> 15 µM
Cc1ccc(OC[C@H](O)CNc2cc[nH]c(=O)c2-c2nc3cc4c(c(C)c3[nH]2)CN(C2CCN(C)CC2)C4=O)c(C)c1 [compound 132],IC50,Alk,0.5 to 5 µM
same,IC50,[1],> 15 µM
same,IC50,K562,> 15 µM
same,IC50,Jak2,< 0.5 µM
Cc1ccc(OC[C@H](O)CNc2cc[nH]c(=O)c2-c2nc3c(C)c4c(cc3[nH]2)C(=O)N(C2CCN(C)CC2)C4)c(C)c1 [compound 139],IC50,Alk,0.5 to 5 µM
same,IC50,[1],> 15 µM
same,IC50,K562,> 15 µM
same,IC50,Jak2,0.5 to 5 µM
Cc1ccc(OC[C@H](O)CNc2cc[nH]c(=O)c2-c2nc3c(C)c4c(cc3[nH]2)CN(C2CCN(C)CC2)C4=O)c(C)c1 [compound 140],IC50,Alk,0.5 to 5 µM
same,IC50,[1],5 to 15 µM
same,IC50,K562,5 to 15 µM
same,IC50,Jak2,< 0.5 µM
CCc1cc(C)ccc1OC[C@H](O)CNc1cc[nH]c(=O)c1-c1nc2cc3c(cc2[nH]1)CN(C1CCN(C)CC1)C3=O [compound 141],IC50,Alk,0.5 to 5 µM
same,IC50,[1],> 15 µM
same,IC50,K562,> 15 µM
same,IC50,Jak2,< 0.5 µM
Cc1ccc(OC[C@H](O)CNc2cc[nH]c(=O)c2-c2nc3cc4c(cc3[nH]2)C(=O)N(C2CCNCC2)C4=O)c(C)c1 [compound 142],IC50,Alk,0.5 to 5 µM
same,IC50,[1],5 to 15 µM
same,IC50,K562,5 to 15 µM
same,IC50,Jak2,0.5 to 5 µM
CCN1CCC(N2Cc3cc4nc(-c5c(NC[C@@H](O)COc6ccc(C)cc6C)cc[nH]c5=O)[nH]c4cc3C2=O)CC1 [compound 144],IC50,Alk,< 0.5 µM
same,IC50,[1],5 to 15 µM
same,IC50,K562,> 15 µM
same,IC50,Jak2,< 0.5 µM
